From patent US10501461B2, “Tyrosine amide derivatives as Rho-kinase inhibitors” (CHIESI FARMACEUTICI S.P.A., priority 2017, dated 2019)

Experiments:
[1] = molecular target: Rho kinase 1 (ROCK-I) (Homo sapiens, UniProt Q13464); assay: In vitro Rho kinase inhibitory activity assay (ADP-Glo), Rho kinase 1; format: biochemical; details: 10 μM ATP, 25° C., expressed as range of activity
Outline: (§1)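 ADP-Glo luminescence read-out. Enzyme (ROCK1 or ROCK2) + compound 30 min, then 10 μM ATP final, 1 h, 25 °C; 2.5 μM MBP peptide substrate, Tris pH7.5/MgCl2/BSA/DTT buffer, 1% DMSO. IC50 from variable-slope fit (0–100% fixed); Ki via Cheng-Prusoff.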

[2] = molecular target: Rho kinase 2 (ROCK-II) (Homo sapiens, UniProt O75116); assay: In vitro Rho kinase inhibitory activity assay (ADP-Glo), Rho kinase 2; format: biochemical; details: 10 μM ATP, 25° C., expressed as range of activity
Chain of Rho kinase 2 (ROCK-II) (O75116 whole entry): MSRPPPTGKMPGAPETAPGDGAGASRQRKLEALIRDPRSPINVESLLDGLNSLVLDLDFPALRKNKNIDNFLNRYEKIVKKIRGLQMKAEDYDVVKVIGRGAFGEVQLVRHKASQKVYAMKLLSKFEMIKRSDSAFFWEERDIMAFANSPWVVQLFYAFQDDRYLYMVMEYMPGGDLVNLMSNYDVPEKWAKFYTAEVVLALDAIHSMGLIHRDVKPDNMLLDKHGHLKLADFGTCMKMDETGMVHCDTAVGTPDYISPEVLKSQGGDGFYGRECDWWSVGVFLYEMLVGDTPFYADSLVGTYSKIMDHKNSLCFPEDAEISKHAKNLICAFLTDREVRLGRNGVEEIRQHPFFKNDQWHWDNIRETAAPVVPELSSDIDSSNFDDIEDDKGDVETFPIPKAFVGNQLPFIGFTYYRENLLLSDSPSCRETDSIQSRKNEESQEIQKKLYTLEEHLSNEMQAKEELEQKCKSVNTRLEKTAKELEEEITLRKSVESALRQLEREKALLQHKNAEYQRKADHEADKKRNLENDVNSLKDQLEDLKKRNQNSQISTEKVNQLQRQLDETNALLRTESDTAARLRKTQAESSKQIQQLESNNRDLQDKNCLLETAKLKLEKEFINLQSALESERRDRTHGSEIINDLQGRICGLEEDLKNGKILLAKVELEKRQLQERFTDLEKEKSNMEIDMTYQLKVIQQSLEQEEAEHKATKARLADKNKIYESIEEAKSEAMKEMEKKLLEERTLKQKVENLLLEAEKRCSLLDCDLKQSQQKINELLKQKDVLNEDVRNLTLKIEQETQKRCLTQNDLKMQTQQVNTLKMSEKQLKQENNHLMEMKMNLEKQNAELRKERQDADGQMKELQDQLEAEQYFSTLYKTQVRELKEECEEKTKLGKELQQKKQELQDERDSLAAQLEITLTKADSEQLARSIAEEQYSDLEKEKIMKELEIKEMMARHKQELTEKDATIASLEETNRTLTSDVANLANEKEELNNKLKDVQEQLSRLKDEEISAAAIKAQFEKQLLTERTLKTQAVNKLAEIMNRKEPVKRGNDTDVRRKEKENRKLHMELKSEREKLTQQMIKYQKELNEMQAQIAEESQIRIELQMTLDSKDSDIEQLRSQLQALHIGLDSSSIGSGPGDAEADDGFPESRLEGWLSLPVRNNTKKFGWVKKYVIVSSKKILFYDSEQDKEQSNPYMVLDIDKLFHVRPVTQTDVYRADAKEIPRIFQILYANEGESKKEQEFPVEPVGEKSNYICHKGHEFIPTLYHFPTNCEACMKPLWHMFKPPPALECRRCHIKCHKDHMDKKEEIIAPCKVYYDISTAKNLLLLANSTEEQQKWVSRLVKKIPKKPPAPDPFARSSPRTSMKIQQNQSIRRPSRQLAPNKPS
Outline: as §1

Chain of Rho kinase 1 (ROCK-I) (Q13464 whole entry): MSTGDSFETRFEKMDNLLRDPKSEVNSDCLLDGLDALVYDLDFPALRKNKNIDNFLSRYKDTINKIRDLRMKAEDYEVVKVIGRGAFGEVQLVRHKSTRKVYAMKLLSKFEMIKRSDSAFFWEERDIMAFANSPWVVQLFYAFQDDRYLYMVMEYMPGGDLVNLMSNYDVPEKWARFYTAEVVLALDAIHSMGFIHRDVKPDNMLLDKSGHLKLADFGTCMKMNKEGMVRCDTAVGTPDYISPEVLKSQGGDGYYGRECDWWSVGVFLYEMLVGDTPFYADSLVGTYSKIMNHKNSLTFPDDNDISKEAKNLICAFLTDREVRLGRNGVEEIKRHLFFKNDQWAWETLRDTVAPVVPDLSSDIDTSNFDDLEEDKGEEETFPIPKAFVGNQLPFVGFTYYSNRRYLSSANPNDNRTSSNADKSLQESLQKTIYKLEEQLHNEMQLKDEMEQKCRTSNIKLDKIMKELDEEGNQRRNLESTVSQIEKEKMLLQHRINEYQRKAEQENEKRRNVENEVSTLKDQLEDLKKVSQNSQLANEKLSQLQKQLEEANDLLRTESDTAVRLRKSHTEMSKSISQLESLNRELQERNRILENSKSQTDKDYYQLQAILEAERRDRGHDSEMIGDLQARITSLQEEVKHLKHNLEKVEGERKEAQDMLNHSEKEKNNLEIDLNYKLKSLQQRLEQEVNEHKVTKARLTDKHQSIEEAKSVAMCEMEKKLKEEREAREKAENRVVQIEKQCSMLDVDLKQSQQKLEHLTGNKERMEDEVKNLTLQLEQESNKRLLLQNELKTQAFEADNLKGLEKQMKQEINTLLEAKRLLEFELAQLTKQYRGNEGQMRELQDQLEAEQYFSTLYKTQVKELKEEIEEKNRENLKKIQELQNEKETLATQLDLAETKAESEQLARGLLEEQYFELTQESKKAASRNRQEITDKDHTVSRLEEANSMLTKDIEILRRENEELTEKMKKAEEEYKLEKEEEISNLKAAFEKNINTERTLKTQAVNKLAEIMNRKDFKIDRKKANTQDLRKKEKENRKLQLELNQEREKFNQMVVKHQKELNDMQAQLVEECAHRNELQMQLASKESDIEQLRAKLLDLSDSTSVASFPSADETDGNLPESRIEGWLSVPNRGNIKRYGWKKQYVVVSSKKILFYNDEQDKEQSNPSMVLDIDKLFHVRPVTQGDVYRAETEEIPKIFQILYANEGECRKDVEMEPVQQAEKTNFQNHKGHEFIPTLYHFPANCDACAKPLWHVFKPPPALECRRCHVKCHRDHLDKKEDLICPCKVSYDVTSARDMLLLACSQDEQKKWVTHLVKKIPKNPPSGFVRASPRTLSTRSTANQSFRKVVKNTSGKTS

N[C@@H](Cc1ccc(Oc2ccnc3[nH]cc(C4=CCNC4)c23)cc1)C(=O)N1CCN(Cc2ccccc2)CC1 [Example 202, (S)-2-amino-1-(4-benzylpiperazin-1-yl)-3-(4-((3-(2,5-dihydro-1H-pyrrol-3-yl)-1H-pyrrolo[2,3-b]pyridin-4-yl)oxy)phenyl)propan-1-one]
Ki [1]: 3 to 30 nM
Ki [2]: 3 to 30 nM

N[C@@H](Cc1ccc(Oc2ccnc3[nH]cc(C4CC4)c23)cc1)C(=O)NC1CCCCC1 [Example 203, (S)-2-amino-N-cyclohexyl-3-(4-((3-cyclopropyl-1H-pyrrolo[2,3-b]pyridin-4-yl)oxy)phenyl)propanamide]
Ki [1]: < 3 nM
Ki [2]: < 3 nM

CN1CCC(NC(=O)[C@@H](N)Cc2ccc(Oc3ccnc4[nH]cc(-c5ccccc5)c34)c(F)c2)CC1 [Example 204, (S)-2-amino-3-(3-fluoro-4-((3-phenyl-1H-pyrrolo[2,3-b]pyridin-4-yl)oxy)phenyl)-N-(1-methylpiperidin-4-yl)propanamide]
Ki [1]: < 3 nM
Ki [2]: < 3 nM

CN1CCC(NC(=O)[C@@H](N)Cc2ccc(Oc3ccnc4[nH]cc(-c5cncs5)c34)c(F)c2)CC1 [Example 205, (S)-2-amino-3-(3-fluoro-4-((3-(thiazol-5-yl)-1H-pyrrolo[2,3-b]pyridin-4-yl)oxy)phenyl)-N-(1-methylpiperidin-4-yl)propanamide]
Ki [1]: < 3 nM
Ki [2]: < 3 nM

N[C@@H](Cc1ccc(Oc2ccnc3[nH]cc(-c4ccc(O)cc4)c23)cc1)C(=O)NCCc1ccncc1 [Example 206, (S)-2-amino-3-(4-((3-(4-hydroxyphenyl)-1H-pyrrolo[2,3-b]pyridin-4-yl)oxy)phenyl)-N-(2-(pyridin-4-yl)ethyl)propanamide]
Ki [1]: < 3 nM
Ki [2]: < 3 nM

N[C@@H](Cc1ccc(Oc2ccnc3[nH]cc(CO)c23)c(F)c1)C(=O)N1CCN(Cc2ccccc2)CC1 [Example 207, (S)-2-amino-1-(4-benzylpiperazin-1-yl)-3-(3-fluoro-4-((3-(hydroxymethyl)-1H-pyrrolo[2,3-b]pyridin-4-yl)oxy)phenyl)propan-1-one]
Ki [1]: < 3 nM
Ki [2]: < 3 nM

N[C@@H](Cc1ccc(Oc2ccnc3[nH]cc(CO)c23)c(F)c1)C(=O)NC1CCCCC1 [Example 208, (S)-2-amino-N-cyclohexyl-3-(3-fluoro-4-((3-(hydroxymethyl)-1H-pyrrolo[2,3-b]pyridin-4-yl)oxy)phenyl)-propanamide]
Ki [1]: < 3 nM
Ki [2]: < 3 nM

N[C@@H](Cc1ccc(Oc2ccnc3[nH]cc(CO)c23)c(F)c1)C(=O)NC1CCOCC1 [Example 209, (S)-2-amino-3-(3-fluoro-4-((3-(hydroxymethyl)-1H-pyrrolo[2,3-b]pyridin-4-yl)oxy)phenyl)-N-(tetrahydro-2H-pyran-4-yl)propanamide]
Ki [1]: 3 to 30 nM
Ki [2]: < 3 nM

CN1CCC(NC(=O)[C@@H](N)Cc2ccc(Oc3ccnc4[nH]cc(CO)c34)c(F)c2)CC1 [Example 210, (S)-2-amino-3-(3-fluoro-4-((3-(hydroxymethyl)-1H-pyrrolo[2,3-b]pyridin-4-yl)oxy)phenyl)-N-(1-methylpiperidin-4-yl)propanamide]
Ki [1]: 3 to 30 nM
Ki [2]: 3 to 30 nM

CN1C[C@@H]2C[C@H]1CN2C(=O)[C@@H](N)Cc1ccc(Oc2ccnc3[nH]cc(CO)c23)c(F)c1 [Example 211, (S)-2-amino-3-(3-fluoro-4-((3-(hydroxymethyl)-1H-pyrrolo[2,3-b]pyridin-4-yl)oxy)phenyl)-1-((1S,4S)-5-methyl-2,5-diazabicyclo[2.2.1]-heptan-2-yl)propan-1-one]
Ki [1]: 3 to 30 nM
Ki [2]: 3 to 30 nM

CN(C)CCCNC(=O)[C@@H](N)Cc1ccc(Oc2ccnc3[nH]cc(CO)c23)c(F)c1 [Example 212, (S)-2-amino-N-(3-(dimethylamino)-propyl)-3-(3-fluoro-4-((3-(hydroxymethyl)-1H-pyrrolo[2,3-b]pyridin-4-yl)oxy)phenyl)propanamide]
Ki [1]: 3 to 30 nM
Ki [2]: 3 to 30 nM

N[C@@H](Cc1ccc(Oc2ccnc3[nH]cc(CO)c23)c(F)c1)C(=O)N1CCN(Cc2ccccn2)CC1 [Example 213, (S)-2-amino-3-(3-fluoro-4-((3-(hydroxymethyl)-1H-pyrrolo[2,3-b]pyridin-4-yl)oxy)phenyl)-1-(4-(pyridin-2-ylmethyl)piperazin-1-yl)propan-1-one]
Ki [1]: < 3 nM
Ki [2]: < 3 nM

COCc1c[nH]c2nccc(Oc3ccc(C[C@H](N)C(=O)NC4CCOCC4)cc3F)c12 [Example 214, (S)-2-amino-3-(3-fluoro-4-((3-(methoxymethyl)-1H-pyrrolo[2,3-b]pyridin-4-yl)oxy)phenyl)-N-(tetrahydro-2H-pyran-4-yl)propanamide]
Ki [1]: 3 to 30 nM
Ki [2]: 3 to 30 nM

COCc1c[nH]c2nccc(Oc3ccc(C[C@H](N)C(=O)N4CCN(C)CC4)cc3F)c12 [Example 215, (S)-2-amino-3-(3-fluoro-4-((3-(methoxymethyl)-1H-pyrrolo[2,3-b]pyridin-4-yl)oxy)phenyl)-1-(4-methylpiperazin-1-yl)propan-1-one]
Ki [1]: 3 to 30 nM
Ki [2]: 3 to 30 nM

N[C@@H](Cc1ccc(Oc2ccnc3[nH]cc(CCO)c23)cc1)C(=O)N1CCN(Cc2ccccc2)CC1 [Example 216, (S)-2-amino-1-(4-benzylpiperazin-1-yl)-3-(4-((3-(2-hydroxyethyl)-1H-pyrrolo[2,3-b]pyridin-4-yl)oxy)phenyl)propan-1-one]
Ki [1]: < 3 nM
Ki [2]: < 3 nM

N[C@@H](Cc1ccc(Oc2ccnc3[nH]cc(C#CCO)c23)cc1)C(=O)NC1CCCCC1 [Example 217, (S)-2-amino-N-cyclohexyl-3-(4-((3-(3-hydroxyprop-1-yn-1-yl)-1H-pyrrolo[2,3-b]pyridin-4-yl)oxy)phenyl)propanamide]
Ki [1]: < 3 nM
Ki [2]: < 3 nM

N#Cc1c[nH]c2nccc(Oc3ccc(C[C@H](N)C(=O)NC4CCOCC4)cc3)c12 [Example 218, (S)-2-amino-3-(4-((3-cyano-1H-pyrrolo[2,3-b]pyridin-4-yl)oxy)phenyl)-N-(tetrahydro-2H-pyran-4-yl)propanamide]
Ki [1]: < 3 nM
Ki [2]: < 3 nM

N#Cc1c[nH]c2nccc(Oc3ccc(C[C@H](N)C(=O)NC4CCCCC4)cc3)c12 [Example 219, (S)-2-amino-3-(4-((3-cyano-1H-pyrrolo[2,3-b]pyridin-4-yl)oxy)phenyl)-N-cyclohexylpropanamide]
Ki [1]: < 3 nM
Ki [2]: < 3 nM

N#Cc1c[nH]c2nccc(Oc3ccc(C[C@H](N)C(=O)N4CCN(Cc5ccccc5)CC4)cc3F)c12 [Example 220, (S)-4-(4-(2-amino-3-(4-benzylpiperazin-1-yl)-3-oxopropyl)-2-fluorophenoxy)-1H-pyrrolo[2,3-b]pyridine-3-carbonitrile]
Ki [1]: < 3 nM
Ki [2]: < 3 nM

N#Cc1c[nH]c2nccc(Oc3ccc(C[C@H](N)C(=O)NC4CCCCC4)cc3F)c12 [Example 221, (S)-2-amino-3-(4-((3-cyano-1H-pyrrolo[2,3-b]pyridin-4-yl)oxy)-3-fluorophenyl)-N-cyclohexylpropanamide]
Ki [1]: < 3 nM
Ki [2]: < 3 nM

CN1CCC(NC(=O)[C@@H](N)Cc2ccc(Oc3ccnc4[nH]cc(C#N)c34)c(F)c2)CC1 [Example 222, (S)-2-amino-3-(4-((3-cyano-1H-pyrrolo[2,3-b]pyridin-4-yl)oxy)-3-fluorophenyl)-N-(1-methylpiperidin-4-yl)propanamide]
Ki [1]: < 3 nM
Ki [2]: < 3 nM

CN1C[C@@H]2C[C@H]1CN2C(=O)[C@@H](N)Cc1ccc(Oc2ccnc3[nH]cc(C#N)c23)c(F)c1 [Example 223, 4-(4-((S)-2-amino-3-((1S,4S)-5-methyl-2,5-diazabicyclo[2.2.1]heptan-2-yl)-3-oxopropyl)-2-fluorophenoxy)-1H-pyrrolo[2,3-b]pyridine-3-carbonitrile]
Ki [1]: < 3 nM
Ki [2]: < 3 nM

N#Cc1c[nH]c2nccc(Oc3ccc(C[C@H](N)C(=O)N4CCN(Cc5ccccn5)CC4)cc3F)c12 [Example 224, (S)-4-(4-(2-amino-3-oxo-3-(4-(pyridin-2-ylmethyl)piperazin-1-yl)propyl)-2-fluorophenoxy)-1H-pyrrolo[2,3-b]pyridine-3-carbonitrile]
Ki [1]: < 3 nM
Ki [2]: < 3 nM

N[C@@H](Cc1ccc(Oc2ncnc3[nH]ccc23)cc1)C(=O)NC1CCCCC1 [Example 225, (S)-3-(4-((7H-pyrrolo[2,3-d]pyrimidin-4-yl)oxy)phenyl)-2-amino-N-cyclohexylpropanamide]
Ki [1]: > 30 nM
Ki [2]: > 30 nM

N[C@@H](Cc1ccc(Oc2ncnc3[nH]ccc23)cc1)C(=O)N1CCN(Cc2ccccc2)CC1 [Example 226, (S)-3-(4-((7H-pyrrolo[2,3-d]pyrimidin-4-yl)oxy)phenyl)-2-amino-1-(4-benzylpiperazin-1-yl)propan-1-one]
Ki [1]: 3 to 30 nM
Ki [2]: 3 to 30 nM

N[C@@H](Cc1ccc(Oc2ccnc3[nH]ccc23)cn1)C(=O)NC1CCCCC1 [Example 227, (S)-3-(5-((1H-pyrrolo[2,3-b]pyridin-4-yl)oxy)pyridin-2-yl)-2-amino-N-cyclohexylpropanamide]
Ki [1]: > 30 nM
Ki [2]: > 30 nM

N[C@@H](Cc1ccc(Oc2ccnc3[nH]ccc23)cn1)C(=O)N1CCN(Cc2ccccc2)CC1 [Example 228, (S)-3-(5-((1H-pyrrolo[2,3-b]pyridin-4-yl)oxy)pyridin-2-yl)-2-amino-1-(4-benzylpiperazin-1-yl)propan-1-one]
Ki [1]: > 30 nM
Ki [2]: 3 to 30 nM

N[C@H](Cc1cc(F)c(Oc2ccnc3[nH]ccc23)c(F)c1)C(=O)NC1CCCCC1 [Example 229, (R)-3-(4-((1H-pyrrolo[2,3-b]pyridin-4-yl)oxy)-3,5-difluorophenyl)-2-amino-N-cyclohexylpropanamide]
Ki [1]: 3 to 30 nM
Ki [2]: 3 to 30 nM
